Active and inactive are the calls of the source. The rule behind the calls is not given here.
Legend:
Mus musculus [1] = test: Immunostimulatory activity in ICR mouse assessed as induction of IL-6 release at 100 uM, iv after 2 hrs by ELISA; assay type: functional, organism-based
Mus musculus [2] = test: Immunostimulatory activity in ICR mouse assessed as induction of MIP-1beta release at 100 uM, iv after 2 hrs by ELISA; assay type: functional, organism-based
Macrophage [3] = test: Immunostimulatory activity in ICR mouse macrophage assessed as induction of phagocytic activity at 50 uM after 2 hrs by fluorescent microsphere assay; assay type: functional, cell-based
[4] = Antitumor activity against mouse B16F0 cells allografted in C57BL/6 mouse assessed as inhibition of lung metastasis at 100 ug, iv administered at 7-day interval over 14 days prior to tumor implantation measured on day 28 relative to control; assay type: functional
Mus musculus [5] = test: Antitumor activity against mouse B16F0 cells allografted in C57BL/6 mouse assessed as inhibition of lung metastasis at 500 ug, iv administered at 7-day interval over 14 days prior to tumor implantation measured on day 28 relative to control; assay type: functional
A549 = test: Immunostimulatory activity in human A549 cells assessed as induction of MIP-1beta release at 100 uM after 3 hrs by ELISA; assay type: functional, cell-based
DLD-1 = test: Immunostimulatory activity in human DLD1 cells assessed as induction of MIP-1beta release at 100 uM after 3 hrs by ELISA; assay type: functional, cell-based
Mus musculus [6] = test: Toxicity in mouse assessed as mortality at 50 mg, ip administered at 7-day interval; assay type: organism-based; settings: in vivo
THP-1 [7] = test: Immunostimulatory activity in human THP1 cells assessed as induction of MIP-1beta release at 100 uM after 3 hrs by ELISA; assay type: functional, cell-based
THP-1 [8] = test: Cytotoxicity against human THP1 cells assessed as induction of TNF-alpha release; assay type: cell-based
[9] = Antitumor activity against mouse B16F0 cells allografted in C57BL/6 mouse assessed as inhibition of lung metastasis at 100 ug, iv administered at 7-day interval over 14 days prior to tumor implantation measured on day 21 relative to control; assay type: functional
Salmonella typhimurium = test: Genotoxicity in Salmonella typhimurium TA98 after 30 mins by Ames test; assay type: toxicity, organism-based; settings: salmonella enterica subsp. enterica serovar typhimurium, 0.5 h
Mus musculus [10] = test: Antitumor activity against mouse B16F0 cells allografted in C57BL/6 mouse assessed as inhibition of lung metastasis at 1000 ug, iv administered at 7-day interval over 14 days prior to tumor implantation measured on day 28 relative to control; assay type: functional
Macrophage [11] = test: Immunostimulatory activity in ICR mouse macrophage assessed as induction of phagocytic activity measuring MIP-1beta secretion at 50 uM after 2 hrs by ELISA; assay type: functional, cell-based
Macrophage [12] = test: Immunostimulatory activity in ICR mouse macrophage assessed as induction of phagocytic activity measuring IL-6 secretion at 50 uM after 2 hrs by ELISA; assay type: functional, cell-based

| Compound | Activity (Mus musculus [1]) | Activity (Mus musculus [2]) | Activity (Macrophage [3]) | also measured |
| --- | --- | --- | --- | --- |
| CCCCCCCCCCCCCCC(CCCCCCCCCCCCCC)CC(=O)OC[C@H]1O[C@H](O[C@H]2O[C@H](COC(=O)CC(CCCCCCCCCCCCCC)CCCCCCCCCCCCCC)[C@@H](O)[C@H](O)[C@H]2O)[C@H](O)[C@@H](O)[C@@H]1O | Active | Active |  |  |
| CCCCCCCCCCCC(=O)O |  |  | inactive |  |
| CCCCCCCCCC(CCCCCCCCC)CC(=O)OC[C@H]1O[C@H](O[C@H]2O[C@H](COC(=O)CC(CCCCCCCCC)CCCCCCCCC)[C@@H](O)[C@H](O)[C@H]2O)[C@H](O)[C@@H](O)[C@@H]1O [VIZANTIN] | Active | Active | Active | inhibition (INH) [4]: 57%; inhibition (INH) (Mus musculus [5]): 62%; Activity (A549): inactive; Activity (DLD-1): inactive; Activity (Mus musculus [6]): Non-toxic; Activity (THP-1 [7]): Active; Activity (THP-1 [8]): Non-toxic; inhibition (INH) [9]: >98%; Activity (Salmonella typhimurium): Non-toxic; inhibition (INH) (Mus musculus [10]): 66% |
| CCCCCCCCCCCCCCC[C@@H](O)[C@@H](CCCCCCCCCCCCCC)C(=O)OC[C@H]1O[C@H](O[C@H]2O[C@H](COC(=O)[C@H](CCCCCCCCCCCCCC)[C@H](O)CCCCCCCCCCCCCCC)[C@@H](O)[C@H](O)[C@H]2O)[C@H](O)[C@@H](O)[C@@H]1O | Active | Active | Active | Activity (Macrophage [11]): Active; Activity (A549): inactive; Activity (DLD-1): inactive; Activity (THP-1 [7]): inactive; Activity (Macrophage [12]): Active; inhibition (INH) (Mus musculus [10]): 41% |
| CCCCCCCCCCCC(CCCCCCCCCCC)CC(=O)OC[C@H]1O[C@H](O[C@H]2O[C@H](COC(=O)CC(CCCCCCCCCCC)CCCCCCCCCCC)[C@@H](O)[C@H](O)[C@H]2O)[C@H](O)[C@@H](O)[C@@H]1O | Active | Active |  |  |
| CCCCCCCCCCCCC(CCCCCCCCCCCC)CC(=O)OC[C@H]1O[C@H](O[C@H]2O[C@H](COC(=O)CC(CCCCCCCCCCCC)CCCCCCCCCCCC)[C@@H](O)[C@H](O)[C@H]2O)[C@H](O)[C@@H](O)[C@@H]1O | Active | Active |  |  |
| CCCCCCCCCCC(CCCCCCCCCC)C(=O)OC[C@H]1O[C@H](O[C@H]2O[C@H](COC(=O)C(CCCCCCCCCC)CCCCCCCCCC)[C@@H](O)[C@H](O)[C@H]2O)[C@H](O)[C@@H](O)[C@@H]1O | Active | Active | Active | Activity (A549): inactive; Activity (DLD-1): inactive; Activity (THP-1 [7]): inactive |
| CCCCCCCCCCCCCCC[C@@H](OC)[C@@H](CCCCCCCCCCCCCC)C(=O)OC[C@H]1O[C@H](O[C@H]2O[C@H](COC(=O)[C@H](CCCCCCCCCCCCCC)[C@@H](CCCCCCCCCCCCCCC)OC)[C@@H](O)[C@H](O)[C@H]2O)[C@H](O)[C@@H](O)[C@@H]1O |  |  | Active | Activity (Macrophage [11]): Active; Activity (Macrophage [12]): Active |
| CCCCCCCCC(CCCCCCCC)CCC(=O)OC[C@H]1O[C@H](O[C@H]2O[C@H](COC(=O)CCC(CCCCCCCC)CCCCCCCC)[C@@H](O)[C@H](O)[C@H]2O)[C@H](O)[C@@H](O)[C@@H]1O |  |  | inactive |  |
| CCCCCCCCCCC(CCCCCCCCCC)CC(=O)OC[C@H]1O[C@H](O[C@H]2O[C@H](COC(=O)CC(CCCCCCCCCC)CCCCCCCCCC)[C@@H](O)[C@H](O)[C@H]2O)[C@H](O)[C@@H](O)[C@@H]1O | Active | Active |  |  |
| CCCCCCCCCCCCCCCCC(CCCCCCCCCCCCCCCC)C(=O)OC[C@H]1O[C@H](O[C@H]2O[C@H](COC(=O)C(CCCCCCCCCCCCCCCC)CCCCCCCCCCCCCCCC)[C@@H](O)[C@H](O)[C@H]2O)[C@H](O)[C@@H](O)[C@@H]1O | Active | Active |  |  |
| CCCCCCCCCC(CCCCCCCCC)C(=O)OC[C@H]1O[C@H](O[C@H]2O[C@H](COC(=O)C(CCCCCCCCC)CCCCCCCCC)[C@@H](O)[C@H](O)[C@H]2O)[C@H](O)[C@@H](O)[C@@H]1O | Active | Active |  |  |
| CCCCCCCCCCCCCC(CCCCCCCCCCCCC)C(=O)OC[C@H]1O[C@H](O[C@H]2O[C@H](COC(=O)C(CCCCCCCCCCCCC)CCCCCCCCCCCCC)[C@@H](O)[C@H](O)[C@H]2O)[C@H](O)[C@@H](O)[C@@H]1O | Active | Active |  |  |
| CCCCCCCCC(CCCCCCCC)C(=O)OC[C@H]1O[C@H](O[C@H]2O[C@H](COC(=O)C(CCCCCCCC)CCCCCCCC)[C@@H](O)[C@H](O)[C@H]2O)[C@H](O)[C@@H](O)[C@@H]1O | Active | Active |  |  |
| CCCCCCCCCCCCC(CCCCCCCCCCCC)C(=O)OC[C@H]1O[C@H](O[C@H]2O[C@H](COC(=O)C(CCCCCCCCCCCC)CCCCCCCCCCCC)[C@@H](O)[C@H](O)[C@H]2O)[C@H](O)[C@@H](O)[C@@H]1O | Active | Active |  |  |
| CCCCCCCCCCCCCCC(CCCCCCCCCCCCCC)C(=O)OC[C@H]1O[C@H](O[C@H]2O[C@H](COC(=O)C(CCCCCCCCCCCCCC)CCCCCCCCCCCCCC)[C@@H](O)[C@H](O)[C@H]2O)[C@H](O)[C@@H](O)[C@@H]1O | Active | Active |  |  |
| CCCCCCCCCCCCCCCCC(CCCCCCCCCCCCCC)C(=O)OC[C@H]1O[C@H](O[C@H]2O[C@H](COC(=O)C(CCCCCCCCCCCCCC)CCCCCCCCCCCCCCCC)[C@@H](O)[C@H](O)[C@H]2O)[C@H](O)[C@@H](O)[C@@H]1O (stereo not given in full) | Active | Active | Active |  |
| CCCCCCCCC(CCCCCCCC)CC(=O)OC[C@H]1O[C@H](O[C@H]2O[C@H](COC(=O)CC(CCCCCCCC)CCCCCCCC)[C@@H](O)[C@H](O)[C@H]2O)[C@H](O)[C@@H](O)[C@@H]1O | Active | Active |  |  |
| CCCCCCCCCCCCCC(CCCCCCCCCCCCC)CC(=O)OC[C@H]1O[C@H](O[C@H]2O[C@H](COC(=O)CC(CCCCCCCCCCCCC)CCCCCCCCCCCCC)[C@@H](O)[C@H](O)[C@H]2O)[C@H](O)[C@@H](O)[C@@H]1O | Active | Active |  |  |
| CCCCCCCCCC(CCCCCCCCC)CCC(=O)OC[C@H]1O[C@H](O[C@H]2O[C@H](COC(=O)CCC(CCCCCCCCC)CCCCCCCCC)[C@@H](O)[C@H](O)[C@H]2O)[C@H](O)[C@@H](O)[C@@H]1O |  |  | inactive |  |
| CCCCCCCCCCCC(CCCCCCCCCCC)C(=O)OC[C@H]1O[C@H](O[C@H]2O[C@H](COC(=O)C(CCCCCCCCCCC)CCCCCCCCCCC)[C@@H](O)[C@H](O)[C@H]2O)[C@H](O)[C@@H](O)[C@@H]1O | Active | Active |  |  |
| CCCCCCCCCCCCCCCC(CCCCCCCCCCCCCCC)C(=O)OC[C@H]1O[C@H](O[C@H]2O[C@H](COC(=O)C(CCCCCCCCCCCCCCC)CCCCCCCCCCCCCCC)[C@@H](O)[C@H](O)[C@H]2O)[C@H](O)[C@@H](O)[C@@H]1O | Active | Active |  |  |
